Data on three compounds can be found in US9029567B2, “Hypoglycemic compounds” (Cadila Pharmaceuticals Limited, priority 2010, dated 2015).

This assay relates to Wistar female rats. The assay can be described thus: Oral Glucose Tolerance Test in animals (in vivo screening of hypoglycemic effect). Conditions: three experiments; for % change in glucose level (Mean ± SEM) 30 Min: 30 min after glucose (2 gm/Kg, given 3 hrs after compound), oral equimolar dose (Sitagliptin 9.0, CPL-2009-0030 11.28, CPL-2009-0031 12.0 mg/kg), no treatment 199 ± 5; for % change in glucose level (Mean ± SEM) 1 Hr: 1 hr after glucose (2 gm/Kg, given 3 hrs after compound), no treatment 154 ± 4; for % change in glucose level (Mean ± SEM) 1 Hr / % change in glucose level (Mean ± SEM) 2 hr: oral equimolar dose; for % change in glucose level (Mean ± SEM) 2 hr: 2 hr after glucose (2 gm/Kg, given 3 hrs after compound), no treatment 122 ± 5. How it is done:
The efficacy compound CPL-2009-0030 and CPL-2009-0031 were prepared as per present invention. They were evaluated through Oral Glucose Tolerance Test in animals. Each group consist of 10-12 weeks old Wistar female rats. The animals were divided into 4 different groups of 6 animals per group. The group I received vehical (WFI Placebo), Group II received Sitagliptin as positive control, Group III received CPL-2009-0030 and Group IV received CPL-2009-0031. All animals had over night fasting.
The drug was administrated as per table 01 at 0 hour to all the study group animals with 10 mL/kg of dose volume. The compounds were administered orally. The glucose (2 gm/Kg body weight) was administered 3 hrs after the administration of compounds. Blood glucose was measured at the time of administration of compound, glucose and 30 min, 1 hr, 2 hr, 3 hr and 4 hr after the glucose administration. […] The rise was maximum at 30 min after glucose administration. […] The difference between no treatment group and other three groups is maximum at 30 min and it decreases over time (FIG. 1). […] Thus, the compound of present invention reduces hyperglycaemic effect of glucose without inducing hypoglycaemia. In other words, compounds of present invention provide hypoglycaemic effect only to reduce post-prandial hyperglycaemia without inducing fasting hypoglycaemia.
To confirm the finding the experiment was repeated three times and the percentage change in glucose level over time of three experiments is presented in table 02. The repeat experiments also confirm the findings.

As for `CCC(C)C(N)C(=O)NC(CC(=O)N1CCn2c(nnc2C(F)(F)F)C1)Cc1cc(F)c(F)cc1F` (stereo not drawn) [CPL-2009-0030], the “% change in glucose level (Mean ± SEM) 30 Min” value is 145 ± 13%, the “% change in glucose level (Mean ± SEM) 1 Hr” value came out at 127 ± 6% and the “% change in glucose level (Mean ± SEM) 2 hr” value stood at 108 ± 5%.
The corresponding values for `NC(Cc1ccccc1)C(=O)NC(CC(=O)N1CCn2c(nnc2C(F)(F)F)C1)Cc1cc(F)c(F)cc1F` (stereo not drawn) [CPL-2009-0031] are 125 ± 3%, 123 ± 4% and 110 ± 3%.
`N[C@@H](CC(=O)N1CCn2c(nnc2C(F)(F)F)C1)Cc1cc(F)c(F)cc1F` [Sitagliptin, reference compound]: the “% change in glucose level (Mean ± SEM) 30 Min” value stood at 149 ± 5%, the “% change in glucose level (Mean ± SEM) 1 Hr” value was 130 ± 4% and the “% change in glucose level (Mean ± SEM) 2 hr” value worked out at 109 ± 2%.
